{"source": "patent US7985573B2", "about": "“Targeted drug-carrying bacteriophages” (priority 2005, dated 2011)", "key": {"[1]": {"test": "Solubilization of FITC by hygromycin", "type": "physicochemical", "text": "For conjugating a hydrophobic cargo, the drug, activated for amine conjugation (in the following experiments, NHS and isothiocynate chemistries were used) was initially reacted in an aqueous solution (NaHCO3 0.1 M pH=8.5) of an aminoglycoside at a concentration lower than the number of available amine groups (to leave one amine available for the subsequent conjugation to the carrier). The reaction was stirred gently for overnight at room temperature. Then the solution was titrated with HCl and Na-citrate buffer was added to final concentration of 0.1 M (pH=5.5). This solution was brought to a final molar concentration of 0.75 M NaCl and finally the carrier bacteriophages was added followed by immediate addition of EDC at concentration of ×100 molar excess over the target carboxyl side chains of the targeted drug carrier. This reaction was stirred gently for 1-2 hours at room temperature, followed by exhaustive dialysis against PBS/0.3 M NaCl. This process is illustrated in FIG. 13.\nEDC mediated conjugation of aminoglycosides was first accomplished by using hygromycin as a model linker. hygromycin contains only two primary amines, one for drug conjugation and the other for conjugation to a carrier. Hygromycin was initially conjugated to FITC as described above."}, "susceptible bacteria": {"system": "susceptible bacteria", "test": "Growth inhibition of susceptible bacteria by the chloramphenicol-prodrug", "type": "cell-based", "conditions": "concentrations up to ×100 of the free chloramphenicol IC50"}, "[2]": {"test": "Stability of the CAM-linker adduct without serum (pH, PBS), HPLC", "type": "physicochemical", "description": "To test the CAM release rate, a reverse phase HPLC analysis was done based on the fact that elution time of free CAM is about 9 min while the CAM-linker adduct is eluted about 16 min after sample injection into a reverse phase C18 column. This was done as follows: reverse phase HPLC was used to measure the chloramphenicol release rate following the incubation of chloramphenicol-prodrug in 10% or in 99% horse serum, or without serum, all in PBS. A reverse phase C-18 column was used on a LabChrom L7400 MERCK HITACHI machine with acetonitrile:water (30:70) in the mobile phase at 1 ml/min flow rate. Under these conditions, free chloramphenicol is eluted 9 min after sample loading while the intact chloramphenicol-prodrug is eluted 16 min after sample loading. The % of released chloramphenicol was calculated by dividing the area of the 9 min peak by the total peak area of all relevant peaks and multiplying by 100."}, "serum esterases": {"system": "serum esterases", "test": "Chloramphenicol release from its linker in horse serum, reverse phase HPLC", "description": "CAM release rate from its linker in 99% horse serum. (A) Reverse phase HPLC was used to measure the breakdown rate following the incubation for the indicated time periods in 99% horse serum at 37° C. Free chloramphenicol (marked by black arrows) is eluted 9 min after sample loading while intact chloramphenicol-linker adduct (marked by gray arrows) is eluted 16 min after sample loading. (B) release rate of chloramphenicol from its linker in 10% horse serum (gray bars) or without serum (in PBS, black bars) was evaluated by HPLC as in A, the % released chloramphenicol was calculated by dividing the area of the 9 min peak by the total peak area of all relevant peaks.\nTo test the CAM release rate, a reverse phase HPLC analysis was done based on the fact that elution time of free CAM is about 9 min while the CAM-linker adduct is eluted about 16 min after sample injection into a reverse phase C18 column. This was done as follows: reverse phase HPLC was used to measure the chloramphenicol release rate following the incubation of chloramphenicol-prodrug in 10% or in 99% horse serum, or without serum, all in PBS. […] The % of released chloramphenicol was calculated by dividing the area of the 9 min peak by the total peak area of all relevant peaks and multiplying by 100."}, "Staphylococcus aureus": {"system": "Staphylococcus aureus", "test": "Growth of Staphylococcus aureus treated with drug-carrying peptide-displaying phages", "type": "cell-based", "conditions": "free drug at concentration equivalent to that released by the phages", "text": "FIG. 11. The effect of drug-carrying peptide-displaying phages on the growth of Staphylococcus aureus. (A) Growth curves of SA cells treated with SA-specific chloramphenicol prodrug-conjugated phage A12C (triangles), chloramphenicol prodrug-conjugated irrelevant phage F2b (circles), non conjugated SA-specific phage A12C as negative control (squares). (B) Growth curves of SA cells treated with SA-specific chloramphenicol prodrug-conjugated phage A12C (triangles) or various concentration of free chloramphenicol: 0.533 μg/ml (large filled circles), 1.0625 μg/ml (small open circles), 2.125 μg/ml (large open circles) or cells grown without any growth inhibitor (filled squares). Error bars represent the standard deviation of the data.\nPhage A12C was chosen to assess the targeting effect of chloramphenicol-conjugated S. aureus-specific peptide-displaying phages. Conjugates were evaluated for their effect on bacterial growth as follows: an overnight bacterial culture was diluted ×100 in PBS. 1 ml of diluted bacteria was collected by centrifugation at 14,000 RPM and pellet re-suspended in 100 μl PBS. 10 μl of this bacterial suspension was mixed with 100 μl of 10^12 phages in ml PBS, and then incubated for 1 hr. […] Growth was recorded after dilution into the TSB medium by recording the optical density (OD) at 600 nm."}}, "data": [{"compound": "O=C1OC2(c3ccc(O)cc3Oc3cc(O)ccc32)c2ccc(N=C=S)cc21", "note": "[FITC]", "values": [{"measurement": "solubility in aqueous buffer", "setting": "[1]; FITC stock solution (38.9 mg/ml in DMSO) added to equal volume of buffer without aminoglycosides", "value": "immediate formation of precipitate"}, {"measurement": "solubility in aqueous buffer", "setting": "[1]; conjugated to hygromycin, molar ratio 10 hygromycin:1 FITC", "value": "immediate solubilization"}]}, {"compound": "O=C(CCCC(=O)ON1C(=O)CCC1=O)OC[C@@H](NC(=O)C(Cl)Cl)[C@H](O)c1ccc([N+](=O)[O-])cc1", "note": "[chloramphenicol-prodrug]", "values": [{"measurement": "inhibition of the growth of susceptible bacteria", "setting": "susceptible bacteria", "value": "did not inhibit the growth"}, {"measurement": "spontaneous hydrolysis rate of the ester bond", "setting": "[2]; PBS alone, entire 48 h period", "value": "less than 5%"}, {"measurement": "stability of CAM-linker adduct", "setting": "[2]; pH values between 6-8", "value": "stable"}, {"measurement": "release rate kinetics", "setting": "serum esterases; 10% horse serum, monitored over 48 hours, compared with 99% serum after correcting for concentration", "value": "same linear kinetics"}, {"measurement": "CAM released from the linker", "setting": "serum esterases; 1 hr incubation in 99% horse serum at 37° C., linear kinetics", "value": "about 15%"}]}, {"compound": "O=C(N[C@H](CO)[C@H](O)c1ccc([N+](=O)[O-])cc1)C(Cl)Cl", "note": "[chloramphenicol]", "values": [{"measurement": "growth of the SA bacteria (OD 600 nm)", "setting": "Staphylococcus aureus", "value": "did not retard"}]}]}
